Results: US20250243486A1, “COMPOSITIONS AND METHODS FOR INHIBITING STAG1 EXPRESSION AND USES THEREOF” (PRESIDENT AND FELLOWS OF HARVARD COLLEGE, priority 2022, published 2025)

Tested on: STAG1 Exon 5
Experiment: STAG1 Exon 5 inclusion in control or STAG2 KO cells following treatment with H3B-8800
Assay type: cell-based

H3B-8800 was tested, and the “STAG1 Exon 5 skipping” value (STAG2 KO versus control cells, following treatment of H3B-8800) was “increased STAG1 Exon 5 skipping” and the “sensitivity of cohesin-mutant AML cells to splicing inhibitor” value (cohesin mutations, AML cells) was “highly sensitive”.
